Measured values: US9604899B2, “Bipolar trans carotenoid salts and their uses” (Diffusion Pharmaceuticals LLC, priority 2002, dated 2017)

Legend:
[1] = background statement; cited from earlier work
[2] = stability (aqueous solution, dry form); settings: tap, distilled, deionized water
[3] = diffusivity of oxygen through aqueous solutions
[4] = TSC by inhalation, drug in blood stream; format: in vivo, rat; settings: rats
Description: TSC has been given to rats via an inhalation route. Ten rats were given TSC directly into the lungs. This was done by inserting a tube into the trachea, and nebulizing 0.2 ml of TSC solution (TSC dissolved in dilute sodium carbonate solution) with about 3 to 6 mls of air. For all dosages studied (0.5-2 mg/kg), about 20% of the drug was present in the blood stream within one minute after it was given.

hemorrhaged rats [5] = assay: hemorrhagic shock in rats (Roy et al); settings: rat, in vivo
Description: In Roy et al, Shock 10, 213-7. (1998), hemorrhaged rats (55% blood volume) were given a bolus of trans sodium crocetinate (TSC) after the hemorrhage ended, followed by saline after another 30 minutes. […] Whole-body oxygen consumption increased in the TSC group, reaching 75% of normal resting value after about 15 minutes.

[6] = simulated TSC molecule surrounded with water molecules; cited from earlier work
[7] = solubility in sodium carbonate-deionized water solution (pH 8.0); format: physicochemical; settings: pH 8, aqueous buffer, thermodynamic from solid, pH 8.0, room temperature, read-out: solubility in water adjusted to pH 8.0 with very dilute sodium carbonate
Description: A BTCS such as TSC dissolves in very dilute sodium carbonate solutions. A dilute, eg 0.00001-0.001M, solution of sodium carbonate can be added, dropwise, to deionized water until the pH is 8.0 (the pH of deionized water is usually 5-6). This only takes a few drops of the very dilute sodium carbonate per, say, 50 mls of deionized water. This sodium carbonate-deionized water solution is capable of completely dissolving a large amount of TSC (around 10 mg/ml)—which is remarkable considering the hydrophobicity of the carotenoid portion of the BTCS.

[8] = system: rat model of acute hypoxia; settings: 10% oxygen air mixture, TSC given after 10 minutes; cited from earlier work
hemorrhaged rats [9] = settings: cited from earlier work
[10] = solubility in common organic solvents; format: physicochemical; settings: chloroform, DMSO, pyridine, methanol, acetone, glacial acetic acid
Description: Attempts were made to dissolve TSC in order to obtain a ^1H NMR spectrum. […] The TSC produced from this project was characterized by IR, UV, HPLC and elemental analyses. […] UV and HPLC were consistent with authentic TSC.^7 Elemental analyses gave satisfactory values.

[11] = oral administration of TSC (gavage), drug in blood stream; format: in vivo, rat; settings: two rats, 15 to 30 minutes after being given
Description: TSC has been shown, in rats, to be absorbed into the blood stream when administered orally (via a gavage technique). […] The maximum amount absorbed orally actually occurred earlier than that time.

[12] = dissolution in normal (isotonic) saline and other salt solutions; format: physicochemical; settings: up to several milligrams per ml added
Description: Large volumes (as much as 3 times the estimated blood loss) of isotonic saline (also called normal saline) are infused as a treatment for hemorrhagic shock. The isotonic saline contains 9 g NaCl per liter of water so as not to disturb the ionic strength of the plasma once it is infused into the body. […] About 50% of the TSC dissolves in normal saline no matter how much TSC is added (up to several milligrams per ml), which means that undissolved particles of TSC are still present. […] The actual composition of the stock solution can be verified using UV-visible spectroscopy. This stock solution can be added to normal saline and the TSC remains dissolved.
This method can be used to dissolve a BTCS in other types of sodium chloride solutions, as well as in solutions of other salts such as KCl, Na2SO4, lactate, etc. Several, eg 1-3 mg/ml, can be put into solution in this manner.

Row | Structure (SMILES) | solubility in water [1] | stability of solutions in water [2] | solubility in deionized water versus normal water (solubility in water) | solubility (solubility in water; water) [mg/mL] | increase of diffusivity of oxygen through aqueous solutions [3] | period the drug was present in the blood stream ([4]; inhalation, 0.8-1.6 mg/kg) | fraction of the drug present in the blood stream ([4]; nebulized into trachea, 0.5-2 mg/kg, within one minute) | oxygen consumption of rats undergoing hemorrhagic shock (hemorrhaged rats [5]) | computational increase in diffusivity [6] [%] | solubility [7] [mg/mL] | survival and hemodynamic stability [8] | whole-body oxygen consumption (hemorrhaged rats [9]; hemorrhaged rats, after about 15 minutes) | survival (hemorrhaged rats [9]; rats hemorrhaged 55% blood volume, TSC bolus after hemorrhage, saline after 30 minutes) | solubility in most common organic solvents [10] | fraction of the dosage given present in the blood stream [11] [%] | fraction of added TSC that dissolves in normal saline [12]
1 | CC(/C=C/C=C(\C)C(=O)O[C@@H]1O[C@H](CO[C@@H]2O[C@H](CO)[C@@H](O)[C@H](O)[C@H]2O)[C@@H](O)[C@H](O)[C@H]1O)=C\C=C\C=C(C)\C=C\C=C(/C)C(=O)O[C@@H]1O[C@H](CO[C@@H]2O[C@H](CO)[C@@H](O)[C@H](O)[C@H]2O)[C@@H](O)[C@H](O)[C@H]1O [crocin] | significant solubility in water | – | – | – | – | – | – | – | – | – | – | – | – | – | – | –
2 | CC(/C=C/C=C(\C)C(=O)O)=C\C=C\C=C(C)\C=C\C=C(/C)C(=O)O [crocetin] | only sparingly soluble in water | – | – | – | – | – | – | – | – | – | – | – | – | – | – | –
3 | CC(/C=C/C=C(\C)C(=O)[O-])=C\C=C\C=C(C)\C=C\C=C(/C)C(=O)[O-].[Na+].[Na+] [TSC, Trans Sodium Crocetinate] | – | only stable if the pH is adjusted so as to make the solution basic | more soluble in deionized water | ~10 | about 30% | at least two hours | about 20% | increase the oxygen consumption | ~30 | ~10 | all survived with good hemodynamic stability for over two hours | 75 % of normal resting value | All of the TSC-treated animals lived | practically insoluble | 1 to 2 | About 50%
